Here are results for 14 compounds from ChEMBL document CHEMBL1909046, “DrugMatrix in vitro pharmacology data”.

pIC50, pKi: −log10 of the molar value.

Among the targets are Cytochrome P450 3A4 (Homo sapiens, UniProt P08684); Cytochrome P450 2D6 (Homo sapiens, UniProt P10635); Cytochrome P450 2C9 (Homo sapiens, UniProt P11712); Cytochrome P450 2C19 (Homo sapiens, UniProt P33261).
The next assay has as its target T1, Androgen receptor (Rattus norvegicus, UniProt P15207).
T1 sequence (P15207 whole entry): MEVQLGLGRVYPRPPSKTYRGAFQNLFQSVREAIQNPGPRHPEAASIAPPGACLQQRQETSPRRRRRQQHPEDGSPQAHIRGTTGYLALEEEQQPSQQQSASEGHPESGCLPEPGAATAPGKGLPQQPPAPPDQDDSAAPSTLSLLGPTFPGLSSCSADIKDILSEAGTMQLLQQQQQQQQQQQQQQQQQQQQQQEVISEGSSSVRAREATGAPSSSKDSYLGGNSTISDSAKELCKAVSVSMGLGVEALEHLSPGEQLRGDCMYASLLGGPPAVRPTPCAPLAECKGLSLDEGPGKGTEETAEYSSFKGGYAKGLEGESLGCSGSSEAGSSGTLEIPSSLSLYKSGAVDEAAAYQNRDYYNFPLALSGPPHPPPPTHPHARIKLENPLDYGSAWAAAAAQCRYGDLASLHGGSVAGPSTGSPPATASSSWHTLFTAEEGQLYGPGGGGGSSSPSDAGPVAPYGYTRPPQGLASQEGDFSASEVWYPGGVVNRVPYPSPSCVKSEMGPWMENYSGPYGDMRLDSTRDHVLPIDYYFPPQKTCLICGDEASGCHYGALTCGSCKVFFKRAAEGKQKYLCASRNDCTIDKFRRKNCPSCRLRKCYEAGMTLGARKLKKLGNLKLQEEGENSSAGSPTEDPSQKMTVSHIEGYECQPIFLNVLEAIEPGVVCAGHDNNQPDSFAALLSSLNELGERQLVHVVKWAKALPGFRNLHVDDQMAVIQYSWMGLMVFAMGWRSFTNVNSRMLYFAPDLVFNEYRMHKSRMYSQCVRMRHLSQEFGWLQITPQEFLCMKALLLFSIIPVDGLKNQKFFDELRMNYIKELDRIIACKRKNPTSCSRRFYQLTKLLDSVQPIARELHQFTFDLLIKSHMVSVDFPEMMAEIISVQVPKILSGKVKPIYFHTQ

For assay [1], the target named is Voltage-gated inwardly rectifying potassium channel KCNH2 (Homo sapiens, UniProt Q12809).
For the next assay, the target named is T2, Glucocorticoid receptor (Homo sapiens, UniProt P04150).
T2 sequence (P04150 whole entry): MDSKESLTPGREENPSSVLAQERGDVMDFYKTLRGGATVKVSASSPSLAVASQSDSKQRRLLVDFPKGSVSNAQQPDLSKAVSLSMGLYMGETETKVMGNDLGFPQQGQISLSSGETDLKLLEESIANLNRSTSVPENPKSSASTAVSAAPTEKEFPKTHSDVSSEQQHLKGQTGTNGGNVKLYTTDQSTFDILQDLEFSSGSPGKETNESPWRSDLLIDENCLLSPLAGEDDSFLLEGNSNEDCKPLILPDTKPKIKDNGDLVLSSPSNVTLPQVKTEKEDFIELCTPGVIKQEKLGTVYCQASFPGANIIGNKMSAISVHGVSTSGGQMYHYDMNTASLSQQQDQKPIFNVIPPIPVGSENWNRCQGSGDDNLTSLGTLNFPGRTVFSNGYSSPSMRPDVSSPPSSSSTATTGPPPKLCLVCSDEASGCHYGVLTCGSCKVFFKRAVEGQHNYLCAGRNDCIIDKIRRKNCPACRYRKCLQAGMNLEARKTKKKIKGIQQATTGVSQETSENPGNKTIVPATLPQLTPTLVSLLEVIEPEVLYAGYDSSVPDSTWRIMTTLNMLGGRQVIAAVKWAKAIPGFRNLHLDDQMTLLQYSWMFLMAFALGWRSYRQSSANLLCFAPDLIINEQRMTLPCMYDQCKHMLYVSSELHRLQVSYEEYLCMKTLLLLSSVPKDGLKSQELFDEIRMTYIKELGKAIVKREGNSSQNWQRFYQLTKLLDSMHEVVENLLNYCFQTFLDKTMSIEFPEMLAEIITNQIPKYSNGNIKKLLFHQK
The assay can be described thus: biochemical.
Further: in other assays of this panel Not Active means under 50% inhibition at 10 µM.

Cytochrome P450 2C9, sequence (P11712 whole entry): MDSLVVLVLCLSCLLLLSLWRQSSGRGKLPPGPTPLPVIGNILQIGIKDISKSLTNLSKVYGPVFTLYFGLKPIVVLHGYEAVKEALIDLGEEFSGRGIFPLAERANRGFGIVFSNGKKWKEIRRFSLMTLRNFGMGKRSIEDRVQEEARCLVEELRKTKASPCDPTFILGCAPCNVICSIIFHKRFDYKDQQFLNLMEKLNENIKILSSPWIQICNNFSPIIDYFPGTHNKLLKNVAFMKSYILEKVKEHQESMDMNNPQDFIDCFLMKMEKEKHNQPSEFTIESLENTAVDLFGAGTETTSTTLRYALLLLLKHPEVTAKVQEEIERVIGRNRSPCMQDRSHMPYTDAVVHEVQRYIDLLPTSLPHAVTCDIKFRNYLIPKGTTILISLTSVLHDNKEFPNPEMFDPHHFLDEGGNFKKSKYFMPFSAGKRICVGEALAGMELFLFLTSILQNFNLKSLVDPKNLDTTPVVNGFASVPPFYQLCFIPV
Voltage-gated inwardly rectifying potassium channel KCNH2, sequence (Q12809 whole entry): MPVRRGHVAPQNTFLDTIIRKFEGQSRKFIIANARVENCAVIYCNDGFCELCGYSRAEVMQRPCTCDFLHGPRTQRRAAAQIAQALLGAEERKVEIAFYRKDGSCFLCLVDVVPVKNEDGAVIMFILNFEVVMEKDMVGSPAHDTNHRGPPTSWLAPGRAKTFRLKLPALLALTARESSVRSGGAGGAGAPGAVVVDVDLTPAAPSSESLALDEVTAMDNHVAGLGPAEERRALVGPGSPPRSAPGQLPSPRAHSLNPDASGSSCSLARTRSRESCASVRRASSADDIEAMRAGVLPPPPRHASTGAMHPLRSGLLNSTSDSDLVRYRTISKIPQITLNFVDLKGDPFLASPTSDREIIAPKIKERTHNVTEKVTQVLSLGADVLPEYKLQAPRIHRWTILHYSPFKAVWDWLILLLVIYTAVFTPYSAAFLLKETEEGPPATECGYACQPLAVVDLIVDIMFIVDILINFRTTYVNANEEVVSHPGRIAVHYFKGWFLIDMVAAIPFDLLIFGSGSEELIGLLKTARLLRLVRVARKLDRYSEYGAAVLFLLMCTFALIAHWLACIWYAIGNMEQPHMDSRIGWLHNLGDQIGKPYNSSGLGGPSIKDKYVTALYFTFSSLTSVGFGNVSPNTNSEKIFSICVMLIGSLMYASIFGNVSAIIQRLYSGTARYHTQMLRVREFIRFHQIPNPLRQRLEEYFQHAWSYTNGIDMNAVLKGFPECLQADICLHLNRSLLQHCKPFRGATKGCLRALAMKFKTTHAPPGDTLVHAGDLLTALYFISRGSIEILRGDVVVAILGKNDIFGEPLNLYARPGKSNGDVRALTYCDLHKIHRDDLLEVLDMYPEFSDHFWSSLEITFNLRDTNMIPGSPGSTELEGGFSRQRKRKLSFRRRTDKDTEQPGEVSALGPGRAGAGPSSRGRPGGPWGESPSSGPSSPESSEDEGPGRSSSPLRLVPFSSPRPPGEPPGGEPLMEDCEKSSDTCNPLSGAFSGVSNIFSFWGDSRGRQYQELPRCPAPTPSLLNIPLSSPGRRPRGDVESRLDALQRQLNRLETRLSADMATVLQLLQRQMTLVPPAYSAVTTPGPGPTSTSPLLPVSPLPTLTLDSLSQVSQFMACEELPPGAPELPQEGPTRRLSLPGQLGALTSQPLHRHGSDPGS
Cytochrome P450 2C19, sequence (P33261 whole entry): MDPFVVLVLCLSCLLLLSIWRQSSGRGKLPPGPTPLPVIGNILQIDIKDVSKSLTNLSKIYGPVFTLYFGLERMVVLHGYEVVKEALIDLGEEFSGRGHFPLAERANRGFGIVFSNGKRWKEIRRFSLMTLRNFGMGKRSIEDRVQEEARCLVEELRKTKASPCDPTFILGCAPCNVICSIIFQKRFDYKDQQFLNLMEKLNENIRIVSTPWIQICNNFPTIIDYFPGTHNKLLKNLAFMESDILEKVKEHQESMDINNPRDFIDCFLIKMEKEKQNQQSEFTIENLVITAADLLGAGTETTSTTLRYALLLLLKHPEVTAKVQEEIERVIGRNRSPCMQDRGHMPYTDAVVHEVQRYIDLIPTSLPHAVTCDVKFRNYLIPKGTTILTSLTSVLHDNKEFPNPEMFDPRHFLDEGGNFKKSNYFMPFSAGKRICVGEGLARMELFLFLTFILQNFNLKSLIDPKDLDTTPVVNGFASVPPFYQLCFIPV
Cytochrome P450 3A4, sequence (P08684 whole entry): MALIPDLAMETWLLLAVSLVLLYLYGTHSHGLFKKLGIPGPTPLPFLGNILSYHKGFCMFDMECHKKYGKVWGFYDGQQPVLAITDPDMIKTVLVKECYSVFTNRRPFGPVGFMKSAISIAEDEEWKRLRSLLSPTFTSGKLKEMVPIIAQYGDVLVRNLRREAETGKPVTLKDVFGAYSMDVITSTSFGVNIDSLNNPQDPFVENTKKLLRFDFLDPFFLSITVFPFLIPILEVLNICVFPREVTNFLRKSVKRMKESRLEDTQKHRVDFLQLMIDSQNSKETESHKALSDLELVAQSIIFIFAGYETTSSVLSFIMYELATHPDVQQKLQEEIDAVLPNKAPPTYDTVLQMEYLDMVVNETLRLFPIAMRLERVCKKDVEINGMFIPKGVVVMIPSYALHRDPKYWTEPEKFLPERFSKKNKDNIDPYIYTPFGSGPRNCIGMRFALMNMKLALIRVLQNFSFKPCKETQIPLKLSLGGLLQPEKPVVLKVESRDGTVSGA
Cytochrome P450 2D6, sequence (P10635 whole entry): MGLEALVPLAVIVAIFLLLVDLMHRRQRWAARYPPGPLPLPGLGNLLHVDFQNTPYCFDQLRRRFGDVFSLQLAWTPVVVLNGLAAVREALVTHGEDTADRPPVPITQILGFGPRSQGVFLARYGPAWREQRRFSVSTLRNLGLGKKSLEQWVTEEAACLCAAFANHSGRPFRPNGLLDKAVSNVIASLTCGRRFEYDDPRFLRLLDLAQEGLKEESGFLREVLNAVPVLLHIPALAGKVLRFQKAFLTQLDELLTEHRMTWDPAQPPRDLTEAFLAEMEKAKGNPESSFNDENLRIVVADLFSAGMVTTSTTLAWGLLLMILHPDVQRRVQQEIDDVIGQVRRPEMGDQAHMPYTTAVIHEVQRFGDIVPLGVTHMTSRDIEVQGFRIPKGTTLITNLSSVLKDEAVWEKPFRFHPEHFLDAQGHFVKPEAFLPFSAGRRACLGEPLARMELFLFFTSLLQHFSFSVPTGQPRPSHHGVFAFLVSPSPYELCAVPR

By pIC50 is commonly meant the negative decadic logarithm of the IC50, by convention in mol/L. Low values mean a large IC50, high ones a small IC50. Turning to `COc1cc(N)nc2[nH]c(-c3ccc(F)cc3)c(-c3ccncc3)c12`, the pIC50 on Cytochrome P450 3A4 was 6.00; against Cytochrome P450 2D6, 6.70; against Cytochrome P450 2C9, 6.00. In addition, at Androgen receptor, the IC50 entry is on record as “Not Active”.
`COc1ccc(/C=C/C(=O)Nc2ccccc2C(=O)O)cc1OC`: on Androgen receptor, the IC50 entry was “Not Active”.
Same read-out and setting: the result for `CC1=C(CC(=O)O)c2cc(F)ccc2/C1=C\c1ccc(S(C)(=O)=O)cc1` [EXISULIND] reads “Not Active”; that for `CC(C)OC(=O)C(C)(C)Oc1ccc(C(=O)c2ccc(Cl)cc2)cc1` [FENOFIBRATE], “Not Active”.
The pKi is the negative decadic logarithm of the Ki, by convention in mol/L. High values mean a low Ki, low ones a high Ki. In assay [1], `OCCN1CCN(CCCN2c3ccccc3Sc3ccc(C(F)(F)F)cc32)CC1` [FLUPHENAZINE] gave a pIC50 of 5.24 and a pKi of 5.33.
As to `Nc1nc2c(c(=O)[nH]1)N(C=O)C(CNc1ccc(C(=O)N[C@@H](CCC(=O)O)C(=O)O)cc1)CN2` (stereo not given in full) [LEUCOVORIN], the IC50 result at Androgen receptor is recorded as “Not Active”.
`C=C(C)[C@H]1Cc2c(ccc3c2O[C@@H]2COc4cc(OC)c(OC)cc4[C@@H]2C3=O)O1` [ROTENONE] gave a pIC50 against Cytochrome P450 2C19 of 5.44. The IC50 entry against Androgen receptor was “Not Active”.
As to `CO[C@H]1C[C@@H]2CC[C@@H](C)[C@@](O)(O2)C(=O)C(=O)N2CCCC[C@H]2C(=O)O[C@H]([C@H](C)C[C@@H]2CC[C@@H](O)[C@H](OC)C2)CC(=O)[C@H](C)/C=C(\C)[C@@H](O)[C@@H](OC)C(=O)[C@H](C)C[C@H](C)/C=C/C=C/C=C/1C` [SIROLIMUS], the pIC50 at Cytochrome P450 3A4 was 5.70; at Cytochrome P450 2C19, 5.40; against Cytochrome P450 2C9, 5.70. The IC50 result at Androgen receptor is on record as “Not Active”.
Take `CN[C@@H]1[C@H](O)[C@H](NC)[C@H]2O[C@@]3(O)C(=O)C[C@@H](C)O[C@H]3O[C@@H]2[C@H]1O` [SPECTINOMYCIN]: the IC50 entry against Androgen receptor is reported as “Not Active”.
On Glucocorticoid receptor, `C[C@]12CC[C@H]3[C@@H](CCC4=CC(=O)CC[C@@]43C)[C@@H]1CC[C@@H]2O` [TESTOSTERONE] gave a negative-log IC50 (pIC50) of 5.49 and a pKi of 5.84.
For the compound `C[C@@H]1C[C@H]2[C@@H]3CCC4=CC(=O)C=C[C@]4(C)C3=CC[C@]2(C)[C@H]1C(=O)CN1CCN(c2cc(N3CCCC3)nc(N3CCCC3)n2)CC1` [TIRILAZAD], the IC50 result against Androgen receptor was “Not Active”.
In the case of `COc1cc(C(=O)NS(=O)(=O)c2ccccc2C)ccc1Cc1cn(C)c2ccc(NC(=O)OC3CCCC3)cc12` [ZAFIRLUKAST], the pIC50 against Cytochrome P450 2C9 is 5.65.
Turning to STANNOUS FLUORIDE, on Androgen receptor, the IC50 result was “Not Active” and the Ki result is reported as “Not Active”.
In the case of THIMEROSAL, on Androgen receptor, the IC50 result is “Not Active” and the Ki result is on record as “Not Active”.
